Laboratory results taken from patent publication US11154571B2, “Exosomes sourced from granulocytic myeloid-derived suppressor cells and application thereof” (Jiangsu University, priority 2015, dated 2021).

Target: T1, Arg-1 (Mus musculus, UniProt Q61176)
T1 construct: endogenous in cells; host or cells: primary G-MDSCs sorted from the spleen of tumor-bearing or CIA mice, and exosomes from their culture supernatant
T1 sequence (Q61176 1-323): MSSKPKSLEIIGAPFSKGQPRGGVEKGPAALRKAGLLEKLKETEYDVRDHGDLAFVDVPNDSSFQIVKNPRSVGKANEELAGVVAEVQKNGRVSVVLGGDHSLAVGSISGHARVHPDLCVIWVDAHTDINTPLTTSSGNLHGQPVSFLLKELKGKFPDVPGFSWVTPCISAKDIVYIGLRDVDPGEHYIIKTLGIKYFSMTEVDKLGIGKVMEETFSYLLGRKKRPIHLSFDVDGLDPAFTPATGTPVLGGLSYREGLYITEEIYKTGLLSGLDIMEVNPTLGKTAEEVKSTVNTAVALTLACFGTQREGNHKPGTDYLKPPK
Test: Arg-1 activity detection (arginase assay kit)
Assay type: biochemical
Conditions: nor-NOHA (5 mg/ml in DMSO) added to G-MDSC culture; FIG. 7A
Description: (1) The activity detection of Arg-1 in G-MDSC exo and inhibition effect of nor-NOHA on the Arg-1 activity in G-MDSC exo: The sorted G-MDSCs are same to example 1. Inoculate 2×10^6 G-MDSCs per well in 24 well plate, and add 1 ml of RPMI-1640 medium and culture at 37° C., 5% CO2 for 16 h. The culture supernatant is collected and used for preparing G-MDSC exo, then the G-MDSC exo was lysed (the same with example 2), and the G-MDSC exo activity was measured with the arginase assay kit from eBioscience company. 5 mg of nor-NOHA powder was dissolved with 1 ml of DMSO, 5 mg/ml nor-NOHA solution is prepared. Experimental groups were treated as follows:
G-MDSC group: G-MDSCs were cultured, and cells are collected.
(G-MDSC+DMSO) group: G-MDSC is cultured after adding […] of DMSO, and cells were collected.
(G-MDSC+NN) group: G-MDSC is cultured after adding […] of nor-NOHA, and cells were collected.
G-MDSC exo group: G-MDSC is cultured, culture supernatant was collected.
(G-MDSC+DMSO) exo group: G-MDSC is cultured after adding […] of DMSO, culture supernatant was collected.
(G-MDSC+NN) exo group: G-MDSC is cultured after adding […] of nor-NOHA, culture supernatant was collected.

N=C(NO)NCC[C@H](N)C(=O)O [NN, nor-NOHA]
inhibition of Arg-1 activity in G-MDSC exo: could be inhibited
